Results taken from patent publication US20100267561A1, “HERBICIDAL PYRIDAZINONE DERIVATIVES” (priority 2007, published 2010).
Read-outs that look alike come from different tables or passages of the source.

What was measured:
Assay in all cases: Test B pre-/postemergence plant response
Format in all cases: in vivo
[1] = system: green foxtail (Setaria viridis); settings: for pest or weed control at 31 g/ha: 31 g ai/ha; for pest or weed control at 62 g/ha: 62 g ai/ha, 100 complete control
Method in brief: (§1)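 Preemergence and postemergence (plants 2-18 cm, 1- to 4-leaf stage) applications used test chemicals in a non-phytotoxic solvent with surfactant. Plants were held in a greenhouse 13 to 15 days, then rated visually against controls on a 0-100 scale (0 no effect, 100 complete control).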

[2] = system: eastern black (E.B.) nightshade (Solanum ptycanthum); settings: Preemergence
Method in brief: as §1

[3] = system: blackgrass (Alopecurus myosuroides); settings: for pest or weed control at 31 g/ha: 31 g ai/ha; for pest or weed control at 62 g/ha: 62 g ai/ha, 100 complete control
Method in brief: as §1

[4] = system: common ragweed (Ambrosia elation); settings: for pest or weed control at 31 g/ha / pest or weed control at 62 g/ha: Ambrosia, read-out: Plant response rating, Ragweed; for pest or weed control at 31 g/ha: 31 g ai/ha; for pest or weed control at 62 g/ha: 62 g ai/ha, 100 complete control
Method in brief: as §1

[5] = system: large crabgrass (Digitaria sanguinalis); settings: for pest or weed control at 31 g/ha: 31 g ai/ha; for pest or weed control at 62 g/ha: 62 g ai/ha, 100 complete control
Method in brief: as §1

[6] = system: lambsquarters (Chenopodium album); settings: for pest or weed control at 31 g/ha / pest or weed control at 62 g/ha: Chenopodium album, read-out: Plant response rating, Lambsquarters; for pest or weed control at 31 g/ha: 31 g ai/ha; for pest or weed control at 62 g/ha: 62 g ai/ha, 100 complete control
Method in brief: as §1

[7] = system: wheat (Triticum aestivum); settings: for plant injury at 31 g/ha / plant injury at 62 g/ha: Triticum aestivum, read-out: Plant response rating, Wheat; for plant injury at 31 g/ha: 31 g ai/ha; for plant injury at 62 g/ha: 62 g ai/ha, 100 complete control
Method in brief: as §1

[8] = system: morningglory (Ipomoea coccinea); settings: for pest or weed control at 31 g/ha / pest or weed control at 62 g/ha: Ipomoea, read-out: Plant response rating, Morningglory; for pest or weed control at 31 g/ha: 31 g ai/ha; for pest or weed control at 62 g/ha: 62 g ai/ha, 100 complete control
Method in brief: as §1

[9] = system: surinam grass (Brachiaria decumbens); settings: for pest or weed control at 31 g/ha / pest or weed control at 62 g/ha: Urochloa decumbens, read-out: Plant response rating, Surinam Grass; for pest or weed control at 31 g/ha: 31 g ai/ha; for pest or weed control at 62 g/ha: 62 g ai/ha, 100 complete control
Method in brief: as §1

[10] = system: soybean (Glycine max); settings: for plant injury at 31 g/ha / plant injury at 62 g/ha: Glycine max, read-out: Plant response rating, Soybean; for plant injury at 31 g/ha: 31 g ai/ha; for plant injury at 62 g/ha: 62 g ai/ha, 100 complete control
Method in brief: as §1

[11] = system: wild oat (Avena fatua); settings: for pest or weed control at 31 g/ha / pest or weed control at 62 g/ha: Avena fatua, read-out: Plant response rating, Oat, Wild; for pest or weed control at 31 g/ha: 31 g ai/ha; for pest or weed control at 62 g/ha: 62 g ai/ha, 100 complete control
Method in brief: as §1

[12] = system: common (oilseed) sunflower (Helianthus annuus); settings: Preemergence
Method in brief: as §1

[13] = system: goosegrass (Eleusine indica); settings: for pest or weed control at 31 g/ha / pest or weed control at 62 g/ha: Eleusine indica, read-out: Plant response rating, Goosegrass; for pest or weed control at 31 g/ha: 31 g ai/ha; for pest or weed control at 62 g/ha: 62 g ai/ha, 100 complete control
Method in brief: as §1

[14] = 8 g ai/ha, postemergence, 0-100 scale
[15] = Preemergence, 8 g ai/ha, scale 0 to 100 (0 no effect, 100 complete control)
[16] = Preemergence, 16 g ai/ha, scale 0 to 100
[17] = 8 g ai/ha, scale 0 to 100 (0 no effect, 100 complete control)
[18] = 16 g ai/ha, postemergence, 0-100 scale
[19] = post-emergence, Postemergence, scale 0 to 100
[20] = post-emergence, Postemergence, scale 0 to 100, 0 no effect
[21] = pre-emergence, Preemergence, scale 0 to 100 (0 no effect, 100 complete control)
[22] = pre-emergence, Preemergence, 0 to 100 scale, 0 no effect

Cc1nn(C)c(=O)c(-c2nc(-c3ccc(Cl)cc3)sc2C)c1O [Compound 79, 4-[2-(4-chlorophenyl)-5-methyl-4-thiazolyl]-5-hydroxy-2,6-dimethyl-3(2H)-pyridazinone]
Foxtail, Green plant response rating [1, 14]: 75 | Foxtail, Green plant response rating [1, 15]: 30 | Foxtail, Green plant response rating [1, 16]: 60 | pest or weed control at 16 g/ha ([1]; Setaria viridis, post-emergence, Postemergence, 16 g ai/ha, scale 0 to 100, read-out: Plant response rating, Foxtail, Green): 85% | pest or weed control at 31 g/ha ([1]; Setaria viridis, post-emergence, Postemergence, scale 0 to 100, read-out: Plant response rating, Foxtail, Green): 98% | pest or weed control at 62 g/ha ([1]; Setaria viridis, post-emergence, Postemergence, scale 0 to 100, 0 no effect, read-out: Plant response rating, Foxtail, Green): 98% | pest or weed control at 31 g/ha ([1]; Setaria viridis, pre-emergence, Preemergence, scale 0 to 100 (0 no effect, 100 complete control), read-out: Plant response rating, Foxtail, Green): 98% | pest or weed control at 62 g/ha ([1]; Setaria viridis, pre-emergence, Preemergence, 0 to 100 scale, 0 no effect, read-out: Plant response rating, Foxtail, Green): 100% | Nightshade, E. B. plant response rating [2, 17]: 0 | Nightshade, E. B. plant response rating ([2]; 16 g ai/ha, scale 0 to 100): 0 | pest or weed control at 62 g/ha ([2]; Solanum, pre-emergence, 62 g ai/ha, 0 to 100 scale, 0 no effect, 100 complete control, read-out: Plant response rating, Nightshade, E. B.): 0% | Blackgrass plant response rating [3, 14]: 50 | pest or weed control at 16 g/ha ([3]; Alopecurus myosuroides, post-emergence, Postemergence, 16 g ai/ha, scale 0 to 100, read-out: Plant response rating, Blackgrass): 50% | pest or weed control at 31 g/ha ([3]; Alopecurus myosuroides, post-emergence, Postemergence, scale 0 to 100, read-out: Plant response rating, Blackgrass): 90% | pest or weed control at 62 g/ha ([3]; Alopecurus myosuroides, post-emergence, Postemergence, scale 0 to 100, 0 no effect, read-out: Plant response rating, Blackgrass): 98% | pest or weed control at 31 g/ha ([3]; Alopecurus myosuroides, pre-emergence, Preemergence, scale 0 to 100 (0 no effect, 100 complete control), read-out: Plant response rating, Blackgrass): 98% | pest or weed control at 62 g/ha ([3]; Alopecurus myosuroides, pre-emergence, Preemergence, 0 to 100 scale, 0 no effect, read-out: Plant response rating, Blackgrass): 100% | Blackgrass plant response rating [3, 15]: 85 | Blackgrass plant response rating [3, 16]: 85 | Ragweed plant response rating [4, 14]: 0 | Ragweed plant response rating [4, 18]: 0 | pest or weed control at 31 g/ha [4, 19]: 0% | pest or weed control at 62 g/ha [4, 20]: 0% | pest or weed control at 31 g/ha [4, 21]: 0% | pest or weed control at 62 g/ha [4, 22]: 0% | Ragweed plant response rating [4, 15]: 0 | Ragweed plant response rating [4, 16]: 0 | Crabgrass, Large plant response rating [5, 14]: 75 | pest or weed control at 16 g/ha ([5]; Digitaria sanguinalis, post-emergence, Postemergence, 16 g ai/ha, scale 0 to 100, read-out: Plant response rating, Crabgrass, Large): 80% | pest or weed control at 31 g/ha ([5]; Digitaria sanguinalis, post-emergence, Postemergence, scale 0 to 100, read-out: Plant response rating, Crabgrass, Large): 85% | pest or weed control at 62 g/ha ([5]; Digitaria sanguinalis, post-emergence, Postemergence, scale 0 to 100, 0 no effect, read-out: Plant response rating, Crabgrass, Large): 98% | pest or weed control at 31 g/ha ([5]; Digitaria sanguinalis, pre-emergence, Preemergence, scale 0 to 100 (0 no effect, 100 complete control), read-out: Plant response rating, Crabgrass, Large): 100% | pest or weed control at 62 g/ha ([5]; Digitaria sanguinalis, pre-emergence, Preemergence, 0 to 100 scale, 0 no effect, read-out: Plant response rating, Crabgrass, Large): 100% | Crabgrass, Large plant response rating [5, 15]: 20 | Crabgrass, Large plant response rating [5, 16]: 100 | Lambsquarters plant response rating [6, 14]: 0 | Lambsquarters plant response rating [6, 18]: 0 | pest or weed control at 31 g/ha [6, 19]: 0% | pest or weed control at 62 g/ha [6, 20]: 0% | pest or weed control at 31 g/ha [6, 21]: 20% | pest or weed control at 62 g/ha [6, 22]: 100% | Lambsquarters plant response rating [6, 15]: 0 | Lambsquarters plant response rating [6, 16]: 0 | Wheat plant response rating [7, 14]: 0 | Wheat plant response rating [7, 18]: 20 | Wheat plant response rating [7, 15]: 0 | Wheat plant response rating [7, 16]: 0 | plant injury at 31 g/ha [7, 19]: 60% | plant injury at 62 g/ha [7, 20]: 85% | plant injury at 31 g/ha [7, 21]: 0% | plant injury at 62 g/ha [7, 22]: 0% | Morningglory plant response rating [8, 14]: 0 | Morningglory plant response rating [8, 18]: 0 | pest or weed control at 31 g/ha [8, 19]: 0% | pest or weed control at 62 g/ha [8, 20]: 0% | pest or weed control at 31 g/ha [8, 21]: 0% | pest or weed control at 62 g/ha [8, 22]: 0% | Morningglory plant response rating [8, 15]: 0 | Morningglory plant response rating [8, 16]: 0 | Surinam Grass plant response rating [9, 14]: 65 | Surinam Grass plant response rating [9, 18]: 70 | Surinam Grass plant response rating [9, 15]: 75 | Surinam Grass plant response rating [9, 16]: 85 | pest or weed control at 31 g/ha [9, 19]: 75% | pest or weed control at 62 g/ha [9, 20]: 85% | pest or weed control at 31 g/ha [9, 21]: 100% | pest or weed control at 62 g/ha [9, 22]: 100% | Soybean plant response rating [10, 14]: 0 | Soybean plant response rating [10, 18]: 0 | plant injury at 31 g/ha [10, 19]: 15% | plant injury at 62 g/ha [10, 20]: 15% | plant injury at 31 g/ha [10, 21]: 98% | plant injury at 62 g/ha [10, 22]: 100% | Soybean plant response rating [10, 15]: 0 | Soybean plant response rating [10, 16]: 0 | Oat, Wild plant response rating [11, 14]: 30 | Oat, Wild plant response rating [11, 18]: 45 | pest or weed control at 31 g/ha [11, 19]: 60% | pest or weed control at 62 g/ha [11, 20]: 98% | pest or weed control at 31 g/ha [11, 21]: 70% | pest or weed control at 62 g/ha [11, 22]: 95% | Oat, Wild plant response rating [11, 15]: 0 | Oat, Wild plant response rating [11, 16]: 0 | pest or weed control at 31 g/ha ([12]; Helianthus annuus, pre-emergence, 31 g ai/ha, scale 0 to 100 (0 no effect, 100 complete control), read-out: Plant response rating, Sunflower): 0% | pest or weed control at 62 g/ha ([12]; Helianthus annuus, pre-emergence, 62 g ai/ha, 0 to 100 scale, 0 no effect, 100 complete control, read-out: Plant response rating, Sunflower): 0% | Sunflower plant response rating [12, 17]: 0 | Sunflower plant response rating ([12]; 16 g ai/ha, scale 0 to 100): 0 | Goosegrass plant response rating [13, 14]: 60 | Goosegrass plant response rating [13, 18]: 80 | pest or weed control at 31 g/ha [13, 19]: 85% | pest or weed control at 62 g/ha [13, 20]: 90% | pest or weed control at 31 g/ha [13, 21]: 100% | pest or weed control at 62 g/ha [13, 22]: 100% | Goosegrass plant response rating [13, 15]: 98 | Goosegrass plant response rating [13, 16]: 100
